From patent publication US6906035B2, “Antimicrobial cationic peptides” (priority 1995, dated 2005)
Read-outs that look alike come from different tables or passages of the source. Each block holds one compound with its values, some of them ahead of it. Ends that are not written are not given here.

Experiments:
E. coli = experiment: MIC, broth dilution in LB-S; assay type: cell-based; conditions: for MIC E. coli 0111:B4: MBI 29 and MBI21 derivatives
Procedure: (§1) The biological activity of the peptides can be determined by standard methods known to those of skill in the art, such as “minimal inhibitory concentration (MIC)” assay described in the present examples, whereby the lowest concentration at which no change in OD is observed for a given period of time is recorded as MIC. Alternatively, “fractional inhibitory concentration (FIC)” is also useful for determination of synergy between the peptides of the invention, or the peptides in combination with known antibiotics. FICs are performed by checkerboard titrations of peptides in one dimension of a microtiter plate, and of antibiotics in the other dimension, for example. The FIC is calculated by looking at the impact of one antibiotic on the MIC of the other and vice versa. […] Preferably, an FIC of less than 0.5 is obtained for synergism. As used herein, FIC can be determined as follows: [formula]
(§2) Briefly, cells were grown overnight at 37° C. in LB-S (Luria broth without any salt supplement) and diluted one in 10,000 in the same medium to give concentrations of about 10^4 to 10^5 CFU/ml. The broth dilutions were set up in a 96 well microtiter plate by putting 200 μl of LB-S containing the initial concentration of antibiotic or compound in column 1 and 100 μl of the same medium in columns 2-12. The compounds were diluted by taking 100 μl of broth from column 1 and mixing it with column 2, resulting in a one in two dilution. This was continued to column 10. Finally, 10 μl of bacteria were pipetted into columns 1-11, and the plates incubated overnight at 37° C. The next day the plates were scored for growth in the wells, and the MIC determined.

Red Blood Cells = experiment: Red blood cell lysis; assay type: cell-based; conditions: concentration lysing Red Blood Cells
P. aeruginosa [1] = conditions: for MIC H103: MBI 29 and MBI21 derivatives
Procedure: (§3) FICs are performed by checkerboard titrations of peptides in one dimension of a microtiter plate, and of antibiotics in the other dimension, for example. The FIC is calculated by looking at the impact of one antibiotic on the MIC of the other and vice versa. […] Preferably, an FIC of less than 0.5 is obtained for synergism. As used herein, FIC can be determined as follows: [formula]
as §2

B. Subtilis = experiment: MIC, broth dilution in LB-S; assay type: cell-based; conditions: MBI 29 and MBI21 derivatives
Procedure: as §1, §2

S. aureus = experiment: MIC, broth dilution in LB-S; assay type: cell-based; conditions: for MIC K147 / MIC SAP: MBI 29 and MBI21 derivatives; for MIC: Table 1a
Procedure: as §1, §2

E. faecalis = experiment: MIC, broth dilution in LB-S; assay type: cell-based; conditions: MBI 29 and MBI21 derivatives
Procedure: as §1, §2

C610 = experiment: MIC, broth dilution in LB-S; assay type: cell-based, S. typhimurium; conditions: MBI 29 and MBI21 derivatives
Procedure: as §1, §2

S. epidermis = conditions: for MIC S. epi 0017: MBI 29 and MBI21 derivatives
Procedure: as §3, §2

P. aeruginosa [2] = experiment: microbe, parasite or virus in culture; conditions: agent alone
Procedure: as §3
(§4) Synergism is identified as an FIC of about ≦0.5.

E. cloacae = conditions: agent alone
Procedure: as §3, §4

A. calcoaceticus = A. calcoaceticus isolate 9, strain 8224; agent alone
Procedure: as §3, §4

X. maltophila = experiment: organism not typed; conditions: agent alone
Procedure: as §3, §4

Candida albicans = experiment: MIC, broth dilution in LB-S; assay type: cell-based; conditions: Candida alibicans (CAN105); Table 1a
Procedure: as §3, §2

Compound: KWKKFIKELQKVLAPGGLLSNIVTSL [compound 493]
MIC E. coli (UB 1005) (E. coli; E. coli (UB 1005), Table 6): 5 µg/mL
RBC Lysis (Red Blood Cells): >55 µg/mL
MIC P. aeruginosa (H187) (P. aeruginosa [1]; P. aeruginosa (H187), Table 6): 10 µg/mL

Compound: KKWWRRVLSGLKTAGPAIQSVLNK [MBI21A1]
MIC B. Subtilis (B. Subtilis): >128 µg/mL
MIC E. coli 0111:B4 (E. coli): 16 µg/mL
MIC K147 (S. aureus): >128 µg/mL
MIC SAP (S. aureus): >128 µg/mL
MIC E. faecalis (E. faecalis): >128 µg/mL
MIC C610 (C610): 16 µg/mL
MIC S. epi 0017 (S. epidermis): 128 µg/mL
MIC H103 (P. aeruginosa [1]): 64 µg/mL

Compound: KWKLFKKKGTGAVLTVLTTGLPALIS [MBI29A3]
MIC B. Subtilis (B. Subtilis): 16 µg/mL
MIC E. coli 0111:B4 (E. coli): 8 µg/mL
MIC K147 (S. aureus): 32 µg/mL
MIC SAP (S. aureus): 32 µg/mL
MIC E. faecalis (E. faecalis): >128 µg/mL
MIC C610 (C610): 8 µg/mL
MIC S. epi 0017 (S. epidermis): 16 µg/mL
MIC H103 (P. aeruginosa [1]): 16 µg/mL

MIC (P. aeruginosa [2]; P. aeruginosa isolate 23, strain ATCC 27853): 128 µg/mL
MIC (P. aeruginosa [2]; P. aeruginosa isolate 25, strain 923-1): 32 µg/mL
MIC (P. aeruginosa [2]; P. aeruginosa isolate 26, strain 3101): 128 µg/mL
MIC (P. aeruginosa [2]; P. aeruginosa isolate 27, strain 14644): 1024 µg/mL
MIC (P. aeruginosa [2]; P. aeruginosa isolate 30, strain B3999-1): 256 µg/mL
MIC (P. aeruginosa [2]; P. aeruginosa isolate 31, strain U7688-1): 256 µg/mL
MIC (P. aeruginosa [2]; P. aeruginosa isolate 32, strain W2897-1): 32 µg/mL
MIC (P. aeruginosa [2]; Pseudomonas aeruginosa, P. aeruginosa isolate 23, strain ATCC 27853): 256 µg/mL
MIC (E. cloacae; E. cloacae isolate 14, strain 938-2): 4 µg/mL
MIC (E. cloacae; E. cloacae isolate 18, strain 3077): 4 µg/mL
MIC (E. cloacae; E. cloacae isolate 21, strain 14661): 8 µg/mL
MIC (A. calcoaceticus): 128 µg/mL
MIC (X. maltophila; X. maltophila isolate 37, strain 3095): 1024 µg/mL
MIC (X. maltophila; X. maltophila isolate 38, strain 7901): 1024 µg/mL
MIC (X. maltophila; X. maltophila isolate 39, strain B3110.1): 1024 µg/mL
MIC (X. maltophila; X. maltophila isolate 40, strain R1302-1): 1024 µg/mL
MIC (X. maltophila; X. maltophila isolate 45, strain W11291): 1024 µg/mL
Compound: CCN1CCN(C(=O)N[C@@H](C(=O)N[C@@H]2C(=O)N3[C@@H]2SC(C)(C)[C@@H]3C(=O)O)c2ccccc2)C(=O)C1=O [Piperacillin]

Compound: KWKSFIKNLTKVLKKVVTTALPALIS [MBI29A2]
MIC B. Subtilis (B. Subtilis): 8 µg/mL
MIC E. coli 0111:B4 (E. coli): 8 µg/mL
MIC K147 (S. aureus): 16 µg/mL
MIC SAP (S. aureus): 8 µg/mL
MIC E. faecalis (E. faecalis): 64 µg/mL
MIC C610 (C610): 8 µg/mL
MIC S. epi 0017 (S. epidermis): 16 µg/mL
MIC H103 (P. aeruginosa [1]): 16 µg/mL

MIC (P. aeruginosa [2]; P. aeruginosa isolate 28, strain 15036): 32 µg/mL
MIC (X. maltophila; X. maltophila isolate 44, strain W6896-2): 8 µg/mL
Compound: O=C(O)c1cn(C2CC2)c2cc(N3CCNCC3)c(F)cc2c1=O [Ciprofloxacin]

Compound: MA-20: 20 carboxy terminal amino acids of melittin (MA) [reference compound]
MIC (E. coli; E. coli (UB1005), Table 1a): ≧64
MIC (S. aureus; S. aureus (K 147)): ≧64
MIC (S. aureus; S. aureus (SAP0017)): ≧64
MIC (S. epidermis; S. epidermis, Table 1a): ≧64
MIC (P. aeruginosa [1]; P. aeruginosa (H187), Table 1a): ≧64
MIC (Candida albicans): ≧64
